Measurements taken from patent publication US20130337051A1, “ADVANCED ACTIVE LIPOSOMAL LOADING OF POORLY WATER-SOLUBLE SUBSTANCES” (priority 2011, published 2013).
≈ marks a conversion by molar mass, not a printed value.

Assays:
[1] = physchem; type: physicochemical
Procedure: A chemical molecule (compound B) is presented with a low molecular weight. […] The solubility is increased up to 8 mg/ml in PEG200.
A calpain inhibitor (PD 150606) is presented, having a low molecular weight of 306 Da. […] The solubility is increased up to 8 mg/ml in PEG200.

[2] = Active loading of pre-formed liposomes (encapsulation efficiency, final product); type: physicochemical; settings: solubilized in pure PEG200 and HPβCD; same pre-formed liposomes (calcium acetate)
Procedure: Liposomes may consist of different phospholipids and cholesterol in several molar ratios in order to modify the transition/processing temperature and particle stability in plasma. […] Components are dissolved in ethanol or iso-propanol. Additionally, for the purpose of increasing the (in vivo) particle stability and enhanced brain delivery, micelles consisting of DSPE-PEG-GSH (up to 5 mol %), which is synthesized before preparation of the liposomes using DSPE-PEG-MAL and fresh solutions of reduced glutathione, and/or DSPE-mPEG (Mw 2000) may be added to the solution at different mol-percentages (up to 5-10 mol % in total). The (lipid) mixture is injected in aqueous solutions containing active loading buffer of different ionic strengths (1-1000 mM), e.g. 2 mg/mL ammonium sulfate or 1 mg/mL calcium acetate. After stirring, the formed vesicles are either extruded through membranes or homogenized in an emulsifier to create liposomes of a uniform size. Alternatively, DSPE-PEG-GSH or DSPE-mPEG is added after preparation of the liposomes by incubation at 25° C. up to 60° C. for 2 up to 24 hours (depending on the phase transition temperature of the lipid mixture and the temperature sensitivity of the agent). […]
The compound is measured with UV at 295 nm at concentrations between 5-60 μg/ml. […]

[3] = pH 7, aqueous with cosolvent or surfactant or cyclodextrin

Row | SMILES | solubility in PEG200 [1] | solubility in water [1] | stability at basic pH [1] | active loading into pre-formed liposomes [2] | solubility ([1]; 20 °C) | solubility ([1]; aqueous with cosolvent or surfactant or cyclodextrin) | solubility [1, 3] | solubility ([1]; pH 5, aqueous buffer) | solubility ([1]; pH 6, aqueous buffer) | solubility ([1]; pH 7, aqueous buffer) | solubility ([1]; pH 8, aqueous buffer)
1 | O=C(O)/C(S)=C/c1ccc(I)cc1 [PD 150606] | up to 8 mg/ml | below 0.05 mg/ml | decomposes | no active loading |  |  |  |  |  |  | 
2 | C[C@@H](Oc1cc(-c2cnn(C3CCNCC3)c2)cnc1N)c1c(Cl)ccc(F)c1Cl [Crizotinib] |  |  |  |  | < 100 µg/mL | 2200 µg/mL (≈ 4890 µM) | ≥ 5000 µg/mL |  |  |  | 
3 | O=C(O)c1cccnc1C(=O)O [quinolinic acid] |  |  |  |  |  |  | ≤ 2200 µg/mL | 3 µg/mL (≈ 18 µM) | 20 µg/mL (≈ 120 µM) | 350 µg/mL (≈ 2090 µM) | 900 µg/mL (≈ 5390 µM)
